# In PMC6018403 (Frontiers in Pharmacology, 2018):
# Read-outs that look alike come from different tables or passages of the source.
# Experiment: Multi-component pharmacokinetic study of GQD, GQD-GC and single herb extracts in rats (plasma, LC/MS/MS)
# Type: in vivo, Sprague-Dawley rats
# Description: Male Sprague-Dawley rats (220–250 g) were used for PK study, and the details were described in Supplemental Data. All procedures were in accordance with the National Institutes of Health Guide for the Care and Use of Laboratory Animals.
# For PK study of GQD and its component herbs, rats were randomly divided into six groups (n = 10 for each group) before oral administration.
# All blood samples were immediately centrifuged at 6,000 rpm (4°C) for 20 min to obtain plasma. The plasma samples were stored at −80°C.
# A Finnigan TSQ Quantum triple quadrupole mass spectrometer was connected to a Surveyor HPLC via ESI interface (ThermoFisher). High purity nitrogen was used as the sheath and auxiliary gas; Ultra-high purity argon was used as the collision gas (1.5 mTorr). Q1 and Q3 quadrupoles were set at unit resolution. […] The column temperature was 40°C. The mobile phase consisted of acetonitrile containing 2% (v/v) methanol (A) and water containing 0.1% (v/v) formic acid (B). […] An aliquot of 5 μL was injected for analysis. UV spectra were obtained by scanning from 200 to 400 nm. The mass spectrometer was operated in the (+)-ESI mode. The optimized parameters were as follows: sheath gas (N2), 50 arb; auxiliary gas (N2), 5 arb; spray voltage, 4.0 kV; capillary temperature, 330°C; collision energy, see Table S1. Analytes were detected in the selected reaction monitoring (SRM) mode. Data were processed by Xcalibur 2.0.7 software (ThermoFisher).
# LC/MS/MS calibration and quantitation data were processed with Xcalibur 2.0.7 software (ThermoFisher). The maximal plasma concentrations (Cmax) and their time of occurrence (Tmax) were obtained directly from the measured data. Other pharmacokinetic parameters were calculated by non-compartment or compartment models using WinNonlin® software (v6.1, Pharsight). Unless otherwise stated, results were expressed as the mean ± SD. Statistical significance in differences of the means was determined by Student's t–test, with a significance level of P < 0.05.
# Herbal materials and extracts.
# The four component herbs, Puerariae Lobatae Radix (Ge-Gen, GG), Scutellariae Radix (Huang-Qin, HQ), Coptidis Rhizoma (Huang-Lian, HL), and Glycyrrhizae Radix et Rhizoma Praeparata cum Melle (Gan-Cao, GC) were purchased from Tianheng Pharmacy. GQD was prepared by decocting the four component herbs […]
# pre-extraction of Ge-Gen using 200 mL of water for 0.5 h. The decoctions were combined, filtered, and concentrated in vacuum at 50 °C. GQD-GC was prepared using the same procedure, except that Gan-Cao was removed from the formula. Final concentration of the GQD-GC extract was equivalent to 1.0 g of the crude drugs per mL. For single herb extracts, the herbs were decocted in 8-fold volume of water for […]
# Final concentrations of the extracts were 1.0 g/mL for Ge-Gen, and 0.5 g/mL for Huang-Qin, Huang-Lian and […]
# For pharmacokinetic study, Male Sprague-Dawley rats (220-250 g) were obtained from the Laboratory Animal Center of Peking University Health Science Center. The […]
# The rats had free access to tap water and soy-free custom diet (Ke’ao Xieli Co.). All procedures were in accordance with the National Institutes of Health Guide for the Care and Use of Laboratory Animals […]
# Experimental details for the PK study
# 1. Preparation of internal standard solution, calibration standard solutions, and quality control solutions […]
# internal standard solution. Reference standard compounds were dissolved in the internal standard solution to prepare individual stock solutions (1.0 mg/mL). These […]
# each compound. The standard solution was then serially diluted to obtain calibration […]
# Quality control stock solutions were prepared at three concentration levels as high QC (HQC), middle QC (MQC), and low QC (LQC), based on linear ranges of the analytes.
# 2.1. Sample preparation for pharmacokinetic study
# The calibration standard and quality control solutions for pharmacokinetic study were […]
# [1] = male, Sprague-Dawley, rat, plasma, po, 3.54 g/kg, HL (Huang-Lian) group: rats, oral extract 3.54 g/kg, plasma, read-out: AUClast
# [2] = male, Sprague-Dawley, rat, plasma, po, 16.5 g/kg, GQD-GC group (GQD without Gan-Cao): rats, oral 16.5 g/kg, plasma, read-out: AUClast
# [3] = male, Sprague-Dawley, rat, plasma, po, 18.9 g/kg, GQD group: rats, oral GQD extract 18.9 g/kg, plasma, read-out: AUClast
# [4] = male, Sprague-Dawley, rat, plasma, po, 18.9 g/kg, GQD group: rats, oral GQD 18.9 g/kg (1.5-fold of clinical dosage), plasma, read-out: AUClast
# [5] = male, Sprague-Dawley, rat, GQD group: rats, oral GQD extract 18.9 g/kg, plasma, read-out: Cmax
# [6] = male, Sprague-Dawley, rat, GQD group: rats, oral GQD extract 18.9 g/kg, plasma, read-out: T1/2 (converted)
# [7] = male, Sprague-Dawley, rat, GQD group: rats, oral GQD extract 18.9 g/kg, plasma, read-out: Tmax
# [8] = male, Sprague-Dawley, rat, GQD-GC group (GQD without Gan-Cao): rats, oral 16.5 g/kg, plasma, read-out: Cmax
# [9] = male, Sprague-Dawley, rat, GQD-GC group (GQD without Gan-Cao): rats, oral 16.5 g/kg, plasma, read-out: T1/2 (converted)
# [10] = male, Sprague-Dawley, rat, GQD-GC group (GQD without Gan-Cao): rats, oral 16.5 g/kg, plasma, read-out: Tmax
# [11] = male, Sprague-Dawley, rat, HL (Huang-Lian) group: rats, oral extract 3.54 g/kg, plasma, read-out: Cmax
# [12] = male, Sprague-Dawley, rat, HL (Huang-Lian) group: rats, oral extract 3.54 g/kg, plasma, read-out: T1/2 (converted)
# [13] = male, Sprague-Dawley, rat, HL (Huang-Lian) group: rats, oral extract 3.54 g/kg, plasma, read-out: Tmax
# [14] = male, Sprague-Dawley, rat, plasma, po, 9.45 g/kg, GG (Ge-Gen) group: rats, oral extract 9.45 g/kg, plasma, read-out: AUClast
# [15] = male, Sprague-Dawley, rat, GG (Ge-Gen) group: rats, oral extract 9.45 g/kg, plasma, read-out: Cmax
# [16] = male, Sprague-Dawley, rat, GG (Ge-Gen) group: rats, oral extract 9.45 g/kg, plasma, read-out: T1/2 (converted)
# [17] = male, Sprague-Dawley, rat, GG (Ge-Gen) group: rats, oral extract 9.45 g/kg, plasma, read-out: Tmax
# [18] = male, Sprague-Dawley, rat, in vivo, po, 3.54 g/kg
# [19] = male, Sprague-Dawley, rat, in vivo, po, 16.5 g/kg
# [20] = male, Sprague-Dawley, rat, in vivo, po, 18.9 g/kg
Structure (SMILES),AUC(0-t) [1] [ng·h/mL],AUC(0-t) [2] [ng·h/mL],AUC(0-t) [3] [ng·h/mL],AUC(0-t) [4] [ng·h/mL],Cmax [5] [ng/mL],half-life [6] [h],Tmax [7] [h],Cmax [8] [ng/mL],half-life [9] [h],Tmax [10] [h],Cmax [11] [ng/mL],half-life [12] [h],Tmax [13] [h],other results
"COc1cc2c(cc1O)CC[n+]1cc3c(OC)c(OC)ccc3cc1-2 [Compound 23, jatrorrhizine]",119 ± 52.4,105 ± 34.2,195 ± 25.7,> 100,8.54 ± 0.05,6.97 ± 1.77,0.72 ± 0.11,9.14 ± 0.82,3.12 ± 0.13,0.63 ± 0.32,6.6 ± 0.59,5.15 ± 1.74,0.61 ± 0.11,"AUC(0-t) (male, Sprague-Dawley, rat, plasma, po, 3.54 g/kg, Huang-Lian group: rats, oral 3.54 g/kg, plasma, read-out: AUClast): 119 ± 52.4 ng·h/mL; AUC(0-t) (male, Sprague-Dawley, rat, plasma, po, 16.5 g/kg, GQD−GC group: rats, oral 16.5 g/kg, plasma, read-out: AUClast): 105 ± 34.2 ng·h/mL; increase of AUClast in GQD group compared with the Huang-Lian group (rats, oral, GQD vs Huang-Lian): 63.6%"
"COc1ccc(-c2coc3cc(O[C@@H]4O[C@H](CO)[C@@H](O)[C@H](O)[C@H]4O)ccc3c2=O)cc1 [Compound 39, ononin]",–,187 ± 129,500 ± 233,> 300,34.8 ± 34.2,5.73 ± 2.2,0.86 ± 0.15,24.1 ± 8.38,2.44 ± 1.45,0.74 ± 0.29,–,–,–,"AUC(0-t) [14]: 139 ± 52.4 ng·h/mL; Cmax [15]: 41.2 ± 11.4 ng/mL; half-life [16]: 1.21 ± 0.24 h; Tmax [17]: 1.12 ± 0.29 h; bioavailability in the GQD group compared with the Ge-Gen group (rats, oral): higher"
"COc1cc2c(cc1OC)-c1cc3ccc4c(c3c[n+]1CC2)OCO4 [Compound 22, epiberberine]",16.7 ± 9.45,26.4 ± 11,29.4 ± 21.3,–,7.21 ± 3.62,4.84 ± 0.13,0.58 ± 0.12,9.35 ± 1.71,4.97 ± 0.85,0.54 ± 0.17,3.53 ± 0.34,4.34 ± 0.18,0.58 ± 0.23,–
"O=C(O)[C@H]1O[C@@H](Oc2cc3oc(-c4ccccc4)cc(=O)c3c(O)c2O)[C@H](O)[C@@H](O)[C@@H]1O [Compound 17, baicalin]",–,39600 ± 2610,22300 ± 11200,–,1180 ± 870,4.8 ± 3.27,7.29 ± 1.38,1890 ± 988,5.34 ± 2.55,7.71 ± 1.34,–,–,–,"AUC(0-t) (male, Sprague-Dawley, rat, plasma, po, 3.54 g/kg, HQ (Huang-Qin) group: rats, oral extract 3.54 g/kg, plasma, read-out: AUClast): 52600 ± 35500 ng·h/mL; AUC(0-t) (male, Sprague-Dawley, rat, plasma, po, 3.54 g/kg, Huang-Qin group: rats, oral 3.54 g/kg, plasma, read-out: AUClast): 52600 ± 35500 ng·h/mL; Cmax (male, Sprague-Dawley, rat, HQ (Huang-Qin) group: rats, oral extract 3.54 g/kg, plasma, read-out: Cmax): 4040 ± 584 ng/mL; half-life (male, Sprague-Dawley, rat, HQ (Huang-Qin) group: rats, oral extract 3.54 g/kg, plasma, read-out: T1/2 (converted)): 3.32 ± 1.08 h; Tmax (male, Sprague-Dawley, rat, HQ (Huang-Qin) group: rats, oral extract 3.54 g/kg, plasma, read-out: Tmax): 7.79 ± 0.99 h; decrease of Cmax in the GQD group compared with the Huang-Qin group (rats, oral, GQD vs Huang-Qin): at least 30%"
"COc1ccc2c(c1O)-c1c(O)c(OC)cc3c1[C@H](C2)[N+](C)(C)CC3 [Compound 19, magnoflorine]",556 ± 224,47.3 ± 9.31,198 ± 74.9,> 100,19.7 ± 5.67,8.35 ± 1.26,4.13 ± 1.21,5.21 ± 1.2,4.54 ± 1.43,0.28 ± 0.13,76.4 ± 23.4,10.2 ± 4.34,4.21 ± 3.47,–
"c1c2c(cc3c1OCO3)-c1cc3ccc4c(c3c[n+]1CC2)OCO4 [Compound 21, coptisine]",–,–,–,–,–,–,–,–,–,–,–,–,–,"increase of AUClast in GQD group compared with the Huang-Lian group (male, Sprague-Dawley, rat, in vivo, po): 49.1%; Cmax [18]: 5.33 ± 1.35 ng/mL; Tmax [18]: 0.68 ± 0.65 h; half-life [18]: 3.83 ± 1.34 h; AUC(0-t) (male, Sprague-Dawley, rat, in vivo, po, 3.54 g/kg, AUClast): 73.2 ± 21.2 ng·h/mL; Cmax [19]: 8.39 ± 1.3 ng/mL; Tmax [19]: 0.69 ± 0.76 h; half-life [19]: 3.87 ± 0.27 h; AUC(0-t) (male, Sprague-Dawley, rat, in vivo, po, 16.5 g/kg, AUClast): 167 ± 24.4 ng·h/mL; AUClast [20]: 109.2 ± 73.23 ng·h/mL; Cmax [20]: 6.56 ± 4.03 ng/mL; Tmax [20]: 0.74 ± 0.32 h; half-life [20]: 5.2 ± 1.37 h; AUC(0-t) (male, Sprague-Dawley, rat, in vivo, po, 18.9 g/kg, AUClast): > 100 ng·h/mL"
"O=c1c(-c2ccc(O)cc2)coc2c([C@@H]3O[C@H](CO)[C@@H](O)[C@H](O)[C@H]3O)c(O)ccc12 [Compound 7, puerarin]",–,5610 ± 279,8610 ± 766,–,577 ± 56.3,5.58 ± 2.9,1.2 ± 1.49,416 ± 232,8.29 ± 2.22,0.52 ± 0.07,–,–,–,"AUC(0-t) [14]: 5020 ± 536 ng·h/mL; AUC(0-t) (male, Sprague-Dawley, rat, plasma, po, 9.45 g/kg, Ge-Gen group: rats, oral 9.45 g/kg, plasma, read-out: AUClast): 5020 ± 536 ng·h/mL; Cmax [15]: 488 ± 23.9 ng/mL; half-life [16]: 6.36 ± 4.39 h; Tmax [17]: 0.59 ± 0.01 h; bioavailability in the GQD group compared with the Ge-Gen group (rats, oral): higher"
